Here are results for eleven molecules from patent publication US10174202B2, “Dyes with phosphinic acid, phosphinate, phosphonate and phosphonamidate substituents as auxochromic groups and methods for preparing the same” (Max-Planck-Gesellschaft zur Foerderung der Wissenschaften …, priority 2017, dated 2019).

Values joined by “and” are separate entries in the source; they are usually repeats but may differ in a detail not shown here. Identical values can stand only once. Counter-ions that a name gives are not always drawn. Marks after values point to notes of the source that are not given here.

The nature of data set [1]: Absorption spectroscopy (UV/Vis). The class given is physicochemical. On the procedure: (§1) Absorption spectra were recorded with a Varian Cary 4000 UV-Vis double-beam spectrophotometer (Agilent Technologies, USA). For the determination of the absorption spectra, quartz cells with a 1 cm path length were used. Emission spectra and fluorescence quantum yield were obtained on a Quantaurus-QY Absolute PL quantum yield spectrometer C11347 (Hamamatsu Photonics, Japan) or on a Varian Cary Eclipse fluorescence spectrometer (Agilent Technologies, USA).

A short description of data set [2]: Emission spectra and fluorescence quantum yield. Format: physicochemical. How it is done:
as §1

The nature of another data set: Fluorescence lifetime. Format: physicochemical.

With `C=CCOP(=O)(C1=C2C=CC(=[N+](C)C)C=C2C(C)(C)c2cc(N(C)C)ccc21)N(C(C)C)C(C)C` (stereo not shown) [Compound 25, 9-[(Allyloxy)(diisopropylamino)phosphoryl]-3,6-bis(dimethylamino)-10,10-dimethyl-9,10-dihydroanthracenylium trifluoromethanesulfonate], the Stability result in “Stability of the dyes” is reported as “poor”.

As for `CN(C)c1ccc2c(P(=O)(Oc3ccccc3C(=O)[O-])N(C)C)c3ccc(=[N+](C)C)cc-3oc2c1` (stereo not shown) [Compound 9, 2-[[3,6-Bis(dimethylamino)-9H-xanthenylium-9yl](dimethylamino)phosphoryloxy]-benzoate], in data set [1] (in aq. PBS, pH 7.4), the Absorption max. worked out at 603 nm and the “ε at absorption max.” value was determined as 69000 M⁻¹ cm⁻¹. For the same molecule, in data set [1] (in methanol), the Absorption max. amounted to 589 nm and the “ε at absorption max.” value was determined as 49000 M⁻¹ cm⁻¹. For the same molecule, in data set [2] (in aq. PBS, pH 7.4), the Emission max. was found to be 638 nm; the “QY (fluorescence quantum yield, Φfl)” value amounted to 0.09; the Stokes shift is given as 35 nm. For the same molecule, in data set [2] (in methanol), the Emission max. came to 622 nm; the “QY (fluorescence quantum yield, Φfl)” value is 0.36; the Stokes shift came out at 33 nm. For the same molecule, the fluorescence lifetime in the data set “Fluorescence lifetime” (in aq. PBS, pH 7.4) came out at 1.88 ns. In addition, the Stability result in “Stability of the dyes” was “moderate”.

For `CC[N+](CC)=c1ccc2c(P(=O)(OC)OC)c3c(oc-2c1)-c1ccc(N(C)C)cc1CC3.O=C([O-])C(F)(F)F` [Compound 20, 10-(Diethylamino)-7-(dimethoxyphosphoryl)-3-(dimethylamino)-6,7-dihydro-5H-benzo[c]xanthenylium trifluoroacetate], the Absorption max. in data set [1] (in acetonitrile) is 681 nm; in data set [1] (in aq. PBS, pH 7.4), 693 nm. Besides, the “ε at absorption max.” value in data set [1] (in acetonitrile) came to 40000 M⁻¹ cm⁻¹; in data set [1] (in aq. PBS, pH 7.4), 29000 M⁻¹ cm⁻¹. Moreover, the Stokes shift in data set [2] (in acetonitrile) is 56 nm; in data set [2] (in aq. PBS, pH 7.4), 61 nm. The Emission max. in data set [2] (in acetonitrile, trifluoroacetate) was 737 nm and 754 nm; in data set [2] (in aq. PBS, pH 7.4), 754 nm. In addition, the “QY (fluorescence quantum yield, Φfl)” value in data set [2] (in aq. PBS, pH 7.4) is on record as 0.02. The fluorescence lifetime in the data set “Fluorescence lifetime” (in acetonitrile) stood at 1.50 ns.

`CCOP(=O)(c1c2ccc(=[N+](C)C)cc-2oc2cc(N(C)C)ccc12)N(C)CCC(=O)O.O=C([O-])C(F)(F)F` (stereo not shown) [Compound 10]: in data set [1] (in acetonitrile), the Absorption max. is recorded as 615 nm and the “ε at absorption max.” value amounted to 22224 M⁻¹ cm⁻¹. In data set [1] (in aq. PBS, pH 7.4), the Absorption max. is reported as 625 nm and the “ε at absorption max.” value was 13816 M⁻¹ cm⁻¹. For the same molecule, in data set [2] (in acetonitrile), the Emission max. is 652 nm; the “QY (fluorescence quantum yield, Φfl)” value stood at 0.46; the Stokes shift worked out at 37 nm. In data set [2] (in aq. PBS, pH 7.4), the Emission max. came out at 670 nm; the “QY (fluorescence quantum yield, Φfl)” value was determined as 0.15; the Stokes shift turned out to be 45 nm. Moreover, the stability of solutions entry in “Stability of the dyes” (protic solvents (MeOH, H2O), particularly in the presence of acids, forms compound 11) is “spontaneously decompose”.

In the case of `CCN(CC)c1ccc2c(P(=O)(OC(C)(C)C)OC(C)(C)C)c(-c3nc4ccccc4s3)c(=O)oc2c1` [Compound 3, Di-tert-butyl [3-(benzo[d]thiazol-2-yl)-7-(diethylamino)-2-oxo-2H-chromen-4-yl]phosphonate], in data set [1] (in acetonitrile), the Absorption max. stood at 434 nm and the “ε at absorption max.” value stood at 39000 M⁻¹ cm⁻¹. For the same molecule, in data set [2] (in acetonitrile), the Emission max. was found to be 658 nm; the “QY (fluorescence quantum yield, Φfl)” value was 0.29; the Stokes shift was 224^a nm. Further, the fluorescence lifetime in “Fluorescence lifetime” (in acetonitrile) is 2.49^a ns.

As to `COP(=O)([C+]1c2ccc(N(C)C)cc2-c2cccc3c(N(C)C)ccc1c23)N(C(C)C)C(C)C.O=C([O-])C(F)(F)F` (stereo not shown) [Compound 28, 7-[(Diisopropylamino)(methoxy)phosphoryl]-4,10-bis(dimethylamino)-7H-benzo[de]anthracen-7-ylium trifluoroacetate], in data set [1] (in aq. PBS, pH 7.4), the Absorption max. stood at 644 nm and the “ε at absorption max.” value came out at 7600 M⁻¹ cm⁻¹. Further, in data set [2] (in aq. PBS, pH 7.4), the Emission max. was 782 nm; the “QY (fluorescence quantum yield, Φfl)” value was 0.04; the Stokes shift is 138^b nm. Also, the Stability result in “Stability of the dyes” is listed as “poor”.

On to `COP(=O)(OC)c1c(-c2nc3ccccc3s2)c(=O)oc2cc(N3CC(O)C3)ccc12` [Compound 2, Dimethyl [3-(benzo[d]thiazol-2-yl)-7-(3-hydroxyazetidin-1-yl)-2-oxo-2H-chromen-4-yl]phosphonate], for which, in data set [1] (in acetonitrile), the Absorption max. was found to be 424 nm and the “ε at absorption max.” value came out at 19000 M⁻¹ cm⁻¹. Besides, in data set [2] (in acetonitrile), the Emission max. came out at 651 nm; the “QY (fluorescence quantum yield, Φfl)” value was 0.16; the Stokes shift was 227^a nm. Moreover, the fluorescence lifetime in “Fluorescence lifetime” (in acetonitrile) is 1.99^a ns.

As for `CCN(CC)c1ccc2c(P(=O)(OC)OC)c(-c3nc4ccccc4s3)c(=O)oc2c1` [Compound 1, Dimethyl [3-(benzo[d]thiazol-2-yl)-7-(diethylamino)-2-oxo-2H-chromen-4-yl]phosphonate], in data set [1] (in acetonitrile), the Absorption max. was determined as 439 nm and the “ε at absorption max.” value is 24000 M⁻¹ cm⁻¹. In addition, in data set [2] (in acetonitrile), the Emission max. came out at 651 nm; the “QY (fluorescence quantum yield, Φfl)” value was 0.20; the Stokes shift is reported as 212^a nm. Besides, the fluorescence lifetime in the data set “Fluorescence lifetime” (in acetonitrile) is reported as 2.55^a ns.

As to `CCN(CC)c1ccc2c(P(=O)(O)O)c(-c3nc4ccccc4s3)c(=O)oc2c1` [Compound 4, [3-(Benzo[d]thiazol-2-yl)-7-(diethylamino)-2-oxo-2H-chromen-4-yl]phosphonic acid], in data set [1] (in aq. PBS, pH 7.4), the Absorption max. came out at 419 nm and the “ε at absorption max.” value worked out at 22000 M⁻¹ cm⁻¹. In data set [2] (in acetonitrile), the Emission max. is given as 613 nm and the “QY (fluorescence quantum yield, Φfl)” value came out at 0.04. Also, in data set [2] (in aq. PBS, pH 7.4), the Emission max. is 613 nm; the “QY (fluorescence quantum yield, Φfl)” value is 0.04; the Stokes shift is given as 194^b nm. This molecule also came in with a fluorescence lifetime in the data set “Fluorescence lifetime” (in acetonitrile) of 2.91 ns. In addition, the fluorescence lifetime in the data set “Fluorescence lifetime” (in methanol + 1% v/v trifluoroacetic acid) was 1.85 ns and 0.93 ns.

For `CC(C)OP(=O)(OC(C)C)C1=C2C=CC(=[N+](C)C)C=C2C(C)(C)c2cc(N(C)C)ccc21` [Compound 24, 9-(Diisopropoxyphosphoryl)-3,6-bis(dimethylamino)-10,10-dimethyl-9,10-dihydro-anthracenylium trifluoromethanesulfonate], the Stability entry in “Stability of the dyes” was “moderate”.

As to `C=CCOP(=O)(C1=c2cc3c(cc2C(C)(C)c2cc4c(cc21)CCCN4CCOC)=[N+](CCOC)CCC3)N(C(C)C)C(C)C` (stereo not shown) [Compound 26, 6-[(Allyloxy)(diisopropylamino)phosphoryl]-1,11-bis(2-methoxyethyl)-13,13-dimethyl-1,2,3,4,6,8,9,10,11,13-decahydrobenzo[1,2-g:5,4-g′]diquinolin-6-ylium trifluoroacetate], in data set [1] (in acetonitrile), the Absorption max. was determined as 724 nm and the “ε at absorption max.” value was determined as 46700 M⁻¹ cm⁻¹. For the same molecule, in data set [1] (in aq. PBS, pH 7.4), the Absorption max. amounted to 734 nm and the “ε at absorption max.” value was 34700 M⁻¹ cm⁻¹. In addition, in data set [2] (in acetonitrile), the Emission max. was 812 nm; the “QY (fluorescence quantum yield, Φfl)” value is 0.08; the Stokes shift was 88 nm. Also, in data set [2] (in aq. PBS, pH 7.4), the Emission max. was 860 nm; the “QY (fluorescence quantum yield, Φfl)” value stood at 0.05; the Stokes shift was determined as 126 nm. For the same molecule, in “Stability of the dyes”, the Stability result is on record as “poor”.
